In assay [1] the target is G-protein coupled receptor 55 (Homo sapiens, UniProt Q9Y2T6). Put plainly: selective activators of receptor GPR55 – imaging, U2OS cells, beta-arrestin-GFP redistribution, primary screen (AID 1961). The assay is classed as functional.
Another assay deals with Coagulation factor XII (Homo sapiens, UniProt P00748). Description: activated coagulation factor XII inhibitor potency, concentration-effect curve, cell-free (AID 716). Type of assay: functional.
For assay [2], the system named is Vero. Put plainly: Vero 76 cell viability after compound exposure – Vero 76 cells, synthesized analogs, cytotoxicity control for West Nile virus antiviral project, SAR follow-up (AID 2414). The settings on record: Chlorocebus sabaeus. Type of assay: functional.
The test system of assay [3] is Vero. Put plainly: Vero cell viability after compound exposure – synthesized analogs, set II, cytotoxicity control for West Nile virus antiviral project, SAR follow-up (AID 2402). Type of assay: functional. To be noted: Chlorocebus sabaeus.
In assay [4] the test system is Vero. Description: host cell viability loss, Vero E6 – synthesized analogs, cytotoxicity control for West Nile virus antiviral project, SAR follow-up (AID 2244). The assay is classed as functional. To be noted: Chlorocebus sabaeus.
A short description of assay [5]: A Cell Based Assay for the Identification of Probe candidate Compounds with Anti- Venezuelan Equine Encephalitis virus. [Related pubchem assays: 2409, 2419, 1621, 2238, 2405, 2024, 2065, 2402, 2414, 1635, 1650, 2244 ]. Type of assay: functional.
The subject of assay [6] is Vero. Description: antiviral protection of cells from WNV – synthesized analogs, SAR follow-up (AID 2238). Type of assay: functional, cell-based. To be noted: Chlorocebus sabaeus.
Assay [7] has as its system Vero. Put plainly: antiviral activity against WNV, CPE read-out – cell-based (AID 2419). Type of assay: functional. To be noted: Chlorocebus sabaeus.
Assay [8] in a line: Trypanosoma cruzi growth suppression in host cells – NIH3T3 host cells, beta-gal luminescence, confirmation (AID 2044).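 Further: intracellular parasites grown in NIH/3T3 mouse fibroblasts as host cells; luminescent beta-galactosidase reporter signal from transgenic T. cruzi replicating inside host cells; inhibitors lower the luminescence signal.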 Type of assay: functional, cell-based.
Assay [9] is described as follows: NIH3T3 cell viability loss – ATP luminescence, mouse fibroblasts, counter-screen, dose response (AID 2010).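 Further: cells exposed to compound for about 90 hours before reading.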 The assay is classed as functional, cell-based. (In general: Counterscreens check selectivity or assay interference.)
For assay [10], the target named is T1, Dual specificity protein phosphatase 3 (Homo sapiens, UniProt P51452). Put plainly: SAR VHR1 absorbance Assay for In Vitro dose response studies. [Related pubchem assays (depositor defined):AID1654, AID1661, AID1878, AID1992, AID2004].
Assay [11] addresses T1, Dual specificity protein phosphatase 3. Put plainly: SAR VHR1 Fluorescent Assay for In Vitro dose response studies. [Related pubchem assays (depositor defined):AID1654, AID1661, AID1878, AID1992, AID2004, AID2070, AID2085]. Type of assay: functional.
Assay [12] deals with T2, Tyrosine-protein phosphatase non-receptor type 7 (Homo sapiens, UniProt P35236).
T2 sequence (P35236 whole entry): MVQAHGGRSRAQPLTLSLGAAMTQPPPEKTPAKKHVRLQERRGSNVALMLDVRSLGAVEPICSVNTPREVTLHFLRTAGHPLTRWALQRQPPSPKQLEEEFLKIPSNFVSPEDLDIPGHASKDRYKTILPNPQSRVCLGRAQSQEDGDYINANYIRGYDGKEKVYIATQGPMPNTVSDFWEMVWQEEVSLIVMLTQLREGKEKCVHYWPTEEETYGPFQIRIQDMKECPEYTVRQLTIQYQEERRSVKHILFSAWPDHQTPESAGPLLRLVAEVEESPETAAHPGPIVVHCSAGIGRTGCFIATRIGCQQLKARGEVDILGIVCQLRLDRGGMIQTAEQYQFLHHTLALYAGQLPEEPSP
Put plainly: redox-active compounds inhibiting HePTP phosphatase – biochemical, fluorescence, mechanism study (AID 2068). The assay is classed as functional.

Assay [13] has as its target T3, Dual specificity protein phosphatase 6 (Rattus norvegicus, UniProt Q64346).
T3 sequence (Q64346 whole entry): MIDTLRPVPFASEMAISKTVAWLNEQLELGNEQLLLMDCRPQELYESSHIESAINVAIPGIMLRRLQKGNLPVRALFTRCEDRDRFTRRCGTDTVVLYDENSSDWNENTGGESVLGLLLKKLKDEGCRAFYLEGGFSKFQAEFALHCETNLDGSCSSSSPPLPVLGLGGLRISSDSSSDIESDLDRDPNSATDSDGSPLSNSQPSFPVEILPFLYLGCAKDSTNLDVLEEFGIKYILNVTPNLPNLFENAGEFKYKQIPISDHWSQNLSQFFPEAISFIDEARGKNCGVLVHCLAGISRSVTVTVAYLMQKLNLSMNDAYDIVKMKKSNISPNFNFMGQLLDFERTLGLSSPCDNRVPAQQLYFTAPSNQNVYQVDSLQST
Put plainly: SAR analysis of inhibitors of MKP-3 - Set 2. [Related pubchem assays (depositor defined):AID1055, AID1661, AID425, AID553, AID566]. Type of assay: functional.

Assay [14] deals with T2, Tyrosine-protein phosphatase non-receptor type 7. Put plainly: inhibition of hematopoietic tyrosine phosphatase HePTP – biochemical, set 2, SAR follow-up (AID 449736). Type of assay: functional.
Assay [15] shares this target. Description: SAR analysis of chemical inhibitors of HePTP using a Fluorescent assay - Set 2. [Related pubchem assays (depositor defined):AID1059, AID1077, AID1661, AID2085, AID521]. Type of assay: functional.
In assay [16] the target is T1, Dual specificity protein phosphatase 3. Put plainly: SAR VHR1 Fluorescent Assay for In Vitro dose response studies Set 2. [Related pubchem assays (depositor defined):AID1654, AID1661, AID1878]. Type of assay: functional.
The target in assay [17] is T3, Dual specificity protein phosphatase 6. The assay is classed as functional.
For the next assay, the target named is CAAX prenyl protease 2 (Saccharomyces cerevisiae S288c, UniProt Q03530). Type of assay: biochemical.
Assay [18] is described as follows: NIH/3T3 cell viability loss – mouse embryonic fibroblasts, dry powder, set 2, cytotoxicity control, dose response (AID 493247). Type of assay: functional, cell-based. To be noted: Fibroblast.
Assay [19] deals with Glyceraldehyde-3-phosphate dehydrogenase (Homo sapiens, UniProt P04406).
Assay [20] has as its target Alkaline phosphatase, placental type (Homo sapiens, UniProt P05187). Put plainly: human placental alkaline phosphatase inhibition – biochemical, luminescence, confirmation (AID 1512). Type of assay: functional.
In assay [21] the target is T4, Alkaline phosphatase, tissue-nonspecific isozyme (Homo sapiens, UniProt P05186).
T4 sequence (P05186 whole entry): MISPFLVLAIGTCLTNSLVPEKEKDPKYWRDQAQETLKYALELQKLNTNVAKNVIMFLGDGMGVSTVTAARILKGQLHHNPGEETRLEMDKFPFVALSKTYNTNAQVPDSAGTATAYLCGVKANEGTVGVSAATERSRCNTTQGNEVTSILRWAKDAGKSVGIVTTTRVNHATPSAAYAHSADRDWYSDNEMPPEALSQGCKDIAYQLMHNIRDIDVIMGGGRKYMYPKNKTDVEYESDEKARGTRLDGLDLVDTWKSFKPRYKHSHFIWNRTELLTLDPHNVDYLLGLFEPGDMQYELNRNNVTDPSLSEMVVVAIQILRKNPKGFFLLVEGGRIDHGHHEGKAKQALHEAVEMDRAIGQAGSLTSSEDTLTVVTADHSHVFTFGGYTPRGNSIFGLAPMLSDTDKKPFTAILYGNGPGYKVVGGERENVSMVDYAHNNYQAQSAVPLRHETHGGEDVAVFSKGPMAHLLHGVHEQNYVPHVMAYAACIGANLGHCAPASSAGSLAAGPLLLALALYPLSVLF
Put plainly: potency against alkaline phosphatase TNAP – biochemical, luminescent, dose response, SAR follow-up (AID 1056).

The source made the active and inactive calls.

A word on the EC50: it is the concentration at which the effect is half-maximal. One may read the IC50 as the concentration at which inhibition is half-maximal. One may read the CC50 as the concentration at which the toxic effect on the cells reaches its halfway point. A word on the AC50: it is the concentration at which the activity in the assay is half-maximal.

T1 sequence (P51452 whole entry): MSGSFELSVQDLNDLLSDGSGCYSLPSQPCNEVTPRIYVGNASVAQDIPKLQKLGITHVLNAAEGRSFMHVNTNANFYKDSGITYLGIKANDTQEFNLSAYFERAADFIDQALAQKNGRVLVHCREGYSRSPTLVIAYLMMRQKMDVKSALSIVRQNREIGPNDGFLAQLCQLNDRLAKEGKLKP
Chain of Coagulation factor XII (P00748 20-372 limits assumed): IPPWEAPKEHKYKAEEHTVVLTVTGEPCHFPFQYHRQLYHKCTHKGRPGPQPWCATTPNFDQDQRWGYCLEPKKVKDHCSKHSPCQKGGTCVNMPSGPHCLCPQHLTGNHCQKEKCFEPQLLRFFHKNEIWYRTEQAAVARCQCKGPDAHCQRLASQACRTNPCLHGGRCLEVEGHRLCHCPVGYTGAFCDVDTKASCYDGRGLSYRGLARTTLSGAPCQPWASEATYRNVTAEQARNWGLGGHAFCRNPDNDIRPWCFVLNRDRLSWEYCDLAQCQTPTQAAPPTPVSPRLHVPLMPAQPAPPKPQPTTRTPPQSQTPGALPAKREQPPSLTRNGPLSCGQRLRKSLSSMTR
Chain of Coagulation factor XII (P00748 373-615 limits assumed): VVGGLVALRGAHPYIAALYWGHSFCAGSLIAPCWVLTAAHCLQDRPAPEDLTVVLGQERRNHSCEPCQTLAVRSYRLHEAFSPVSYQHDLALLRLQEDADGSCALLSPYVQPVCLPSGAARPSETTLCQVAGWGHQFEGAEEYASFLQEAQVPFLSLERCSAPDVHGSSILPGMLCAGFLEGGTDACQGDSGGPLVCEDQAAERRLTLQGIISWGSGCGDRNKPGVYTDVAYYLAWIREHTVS
Chain of Glyceraldehyde-3-phosphate dehydrogenase (P04406 whole entry): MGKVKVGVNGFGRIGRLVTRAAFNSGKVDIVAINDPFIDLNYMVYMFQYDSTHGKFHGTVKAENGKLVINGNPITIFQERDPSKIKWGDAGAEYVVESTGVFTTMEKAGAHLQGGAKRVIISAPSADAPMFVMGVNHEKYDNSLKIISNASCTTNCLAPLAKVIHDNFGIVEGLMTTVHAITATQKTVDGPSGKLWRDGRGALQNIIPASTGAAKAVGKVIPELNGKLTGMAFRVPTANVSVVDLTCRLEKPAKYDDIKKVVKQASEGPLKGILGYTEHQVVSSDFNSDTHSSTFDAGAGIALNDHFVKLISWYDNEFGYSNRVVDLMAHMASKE
Chain of CAAX prenyl protease 2 (Q03530 whole entry): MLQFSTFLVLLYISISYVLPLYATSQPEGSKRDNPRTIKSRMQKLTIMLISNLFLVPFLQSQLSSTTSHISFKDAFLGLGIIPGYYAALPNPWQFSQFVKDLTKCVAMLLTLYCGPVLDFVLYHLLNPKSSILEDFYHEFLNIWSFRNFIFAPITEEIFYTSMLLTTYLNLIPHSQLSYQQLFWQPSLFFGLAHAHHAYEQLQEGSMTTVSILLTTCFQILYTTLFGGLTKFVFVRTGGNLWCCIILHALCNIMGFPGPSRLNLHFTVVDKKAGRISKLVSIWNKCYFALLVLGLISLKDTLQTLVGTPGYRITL
Chain of Alkaline phosphatase, placental type (P05187 whole entry): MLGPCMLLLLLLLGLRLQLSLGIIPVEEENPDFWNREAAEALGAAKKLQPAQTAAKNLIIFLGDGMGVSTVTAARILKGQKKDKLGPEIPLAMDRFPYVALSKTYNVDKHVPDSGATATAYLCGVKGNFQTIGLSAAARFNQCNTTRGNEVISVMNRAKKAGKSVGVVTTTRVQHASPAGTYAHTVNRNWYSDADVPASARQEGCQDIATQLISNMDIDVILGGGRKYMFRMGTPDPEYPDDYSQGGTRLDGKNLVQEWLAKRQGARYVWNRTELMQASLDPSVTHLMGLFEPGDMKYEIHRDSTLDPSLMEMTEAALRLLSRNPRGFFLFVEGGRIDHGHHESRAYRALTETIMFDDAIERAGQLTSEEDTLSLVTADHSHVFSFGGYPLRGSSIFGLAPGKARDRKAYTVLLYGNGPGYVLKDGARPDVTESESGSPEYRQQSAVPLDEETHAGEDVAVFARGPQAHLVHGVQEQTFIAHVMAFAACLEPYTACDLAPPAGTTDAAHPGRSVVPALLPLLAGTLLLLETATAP
Chain of G-protein coupled receptor 55 (Q9Y2T6 whole entry): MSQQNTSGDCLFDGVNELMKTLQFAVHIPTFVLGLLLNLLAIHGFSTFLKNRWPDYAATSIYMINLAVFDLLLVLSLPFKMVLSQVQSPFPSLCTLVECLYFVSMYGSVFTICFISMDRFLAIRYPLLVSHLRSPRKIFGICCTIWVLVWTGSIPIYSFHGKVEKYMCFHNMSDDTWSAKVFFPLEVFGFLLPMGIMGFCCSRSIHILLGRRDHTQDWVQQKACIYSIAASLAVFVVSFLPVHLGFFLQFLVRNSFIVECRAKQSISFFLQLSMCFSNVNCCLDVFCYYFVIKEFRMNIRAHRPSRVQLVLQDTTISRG

`CC(C)C[C@@H](CSc1ccc(Br)cc1)N1CCN(CC(C)C)CCC1=O`: in assay [1], the EC50 is 15.3 µM (inactive).
As for `CN(CC(=O)Nc1cccnc1)S(=O)(=O)c1cc(Cl)ccc1Cl`, on Coagulation factor XII, the IC50 is > 50 µM (inactive).
Regarding `OC1c2cc(Br)ccc2N=C2CCCN21` (stereo not given), the CC50 is 71.5 µM (active) in the assay with Vero [2], 35.5 µM (active) in the assay on Vero [3] and > 80 µM (active) in the assay on Vero [4]. Moreover, the IC50 was 14.5 µM (active) in assay [5], 25.7 µM (active) with Vero [6] and > 25 µM (active) with Vero [7]. Also, the EC50 in assay [8] was 3.78 µM (active); in [9], > 60 µM (not active).
On to `NS(=O)(=O)c1ccc(NC(=S)NC2CC2)cc1`, for which the IC50 in assay [10] was 12.5 µM (active); in assay [11], > 99 µM (inactive); in assay [12], 0.588 µM (active); in assay [13] it was > 100 µM (inactive); in assay [14] it was > 100 µM (inactive); in assay [15] it was 27.9 µM (active). The figures for the IC50 in assay [16] and in [17] were 5.38 µM (active) and > 99 µM (inactive), respectively.
`CCn1cc(/C=C(\NC(=O)c2ccccc2F)C(=O)N2CCCC2)c2ccccc21`: the AC50 on CAAX prenyl protease 2 is 3.91 µM (active).
As for `CCCCCC(=O)N/N=C/c1ccc([N+](=O)[O-])o1`, the EC50 in assay [8] is 0.183 µM (active); in assay [9], > 60 µM (not active). Besides, the AC50 in assay [18] is 26.6 µM (active).
Take `O=C(O)c1cc(-c2ccccc2Cl)n[nH]1`: the IC50 in assay [19] is > 100 µM (not active); in assay [20] it was > 100 µM (inactive); in assay [21], 0.584 µM (active).

The record behind these values is ChEMBL document CHEMBL1201862, “PubChem BioAssay data set” (2004).
